In ChEMBL document CHEMBL5303573, “Mapping human microbiome drug metabolism by gut bacteria and their genes” (Nature, 2019):

How the values were obtained:
[1] = The drug is tested on Bifidobacterium longum subsp. Infantis strain: CCUG52486 for biotransformation. The drug concentrations were measured before and after a 12-h incubation by liquid-chromatography-coupled mass spectrometry (LC–MS); conditions: 2 µM
[2] = The drug is tested on Collinsella intestinalis strain: DSM13280 for biotransformation. The drug concentrations were measured before and after a 12-h incubation by liquid-chromatography-coupled mass spectrometry (LC–MS); conditions: 2 µM
[3] = The drug is tested on Bacteroides cellulosilyticus strain: DSM14838 for biotransformation. The drug concentrations were measured before and after a 12-h incubation by liquid-chromatography-coupled mass spectrometry (LC–MS); conditions: 2 µM
[4] = The drug is tested on Clostridium asparagiforme strain: DSM15981 for biotransformation. The drug concentrations were measured before and after a 12-h incubation by liquid-chromatography-coupled mass spectrometry (LC–MS); assay type: ADME; set-up: dose 2 uM, timepoint 0 vs 12 hours; conditions: enterocloster asparagiformis, 2 µM
[5] = The drug is tested on Enterococcus faecalis strain: V583 for biotransformation. The drug concentrations were measured before and after a 12-h incubation by liquid-chromatography-coupled mass spectrometry (LC–MS); conditions: 2 µM
[6] = The drug is tested on Eubacterium hallii strain: DSM3353 for biotransformation. The drug concentrations were measured before and after a 12-h incubation by liquid-chromatography-coupled mass spectrometry (LC–MS); conditions: anaerobutyricum hallii, 2 µM
[7] = The drug is tested on Ruminococcus gnavus strain: ATCC29149 for biotransformation. The drug concentrations were measured before and after a 12-h incubation by liquid-chromatography-coupled mass spectrometry (LC–MS); conditions: mediterraneibacter gnavus, 2 µM
[8] = The drug is tested on Providencia rettgeri strain: DSM1131 for biotransformation. The drug concentrations were measured before and after a 12-h incubation by liquid-chromatography-coupled mass spectrometry (LC–MS); assay type: ADME; set-up: dose 2 uM, timepoint 0 vs 12 hours; conditions: 2 µM
[9] = The drug is tested on Providencia stuartii strain: ATCC25827 for biotransformation. The drug concentrations were measured before and after a 12-h incubation by liquid-chromatography-coupled mass spectrometry (LC–MS); conditions: 2 µM
[10] = bacteroides eggerthii, 12 h, 2 µM
Description: The drug is tested on Bacteroides eggerthii strain: DSM20697 for biotransformation. The drug concentrations were measured before and after a 12-h incubation by liquid-chromatography-coupled mass spectrometry (LC–MS)

[11] = bacteroides stercoris, 12 h, 2 µM
Description: The drug is tested on Bacteroides stercoris strain: ATCC43183 for biotransformation. The drug concentrations were measured before and after a 12-h incubation by liquid-chromatography-coupled mass spectrometry (LC–MS)

[12] = bacteroides thetaiotaomicron, 12 h, 2 µM
Description: The drug is tested on Bacteroides thetaiotaomicron strain: VPI-5482 for biotransformation. The drug concentrations were measured before and after a 12-h incubation by liquid-chromatography-coupled mass spectrometry (LC–MS)

[13] = segatella copri, 12 h, 2 µM
Description: The drug is tested on Prevotella copri strain: DSM18205 for biotransformation. The drug concentrations were measured before and after a 12-h incubation by liquid-chromatography-coupled mass spectrometry (LC–MS)

[14] = enterocloster bolteae, 12 h, 2 µM
Description: The drug is tested on Clostridium bolteae strain: ATCCBAA-613 for biotransformation. The drug concentrations were measured before and after a 12-h incubation by liquid-chromatography-coupled mass spectrometry (LC–MS)

[15] = limosilactobacillus reuteri cf48-3a, 12 h, 2 µM
Description: The drug is tested on Lactobacillus reuteri CF48-3A strain: BEI HM-102 for biotransformation. The drug concentrations were measured before and after a 12-h incubation by liquid-chromatography-coupled mass spectrometry (LC–MS)

[16] = The drug is tested on Clostridium sp. strain: fecal isolate for biotransformation. The drug concentrations were measured before and after a 12-h incubation by liquid-chromatography-coupled mass spectrometry (LC–MS); conditions: 2 µM
[17] = The drug is tested on Blautia hansenii strain: DSM20583 for biotransformation. The drug concentrations were measured before and after a 12-h incubation by liquid-chromatography-coupled mass spectrometry (LC–MS); conditions: 2 µM
[18] = The drug is tested on Bacteroides fragilis strain: HMW615 for biotransformation. The drug concentrations were measured before and after a 12-h incubation by liquid-chromatography-coupled mass spectrometry (LC–MS); conditions: 2 µM
[19] = The drug is tested on Bacteroides fragilis strain: ATCC43859 for biotransformation. The drug concentrations were measured before and after a 12-h incubation by liquid-chromatography-coupled mass spectrometry (LC–MS); conditions: 2 µM

| Bacterial Biotransformation [1] | Bacterial Biotransformation [2] | Bacterial Biotransformation [3] | Bacterial Biotransformation [4] | Bacterial Biotransformation [5] | Bacterial Biotransformation [6] | Bacterial Biotransformation [7] | Bacterial Biotransformation [8] | Bacterial Biotransformation [9] | Bacterial Biotransformation [10] | Bacterial Biotransformation [11] | Bacterial Biotransformation [12] | Bacterial Biotransformation [13] | Bacterial Biotransformation [14] | Bacterial Biotransformation [15] | Bacterial Biotransformation [16] | Bacterial Biotransformation [18] | Bacterial Biotransformation [19] | SMILES | Bacterial Biotransformation [17] |
| --- | --- | --- | --- | --- | --- | --- | --- | --- | --- | --- | --- | --- | --- | --- | --- | --- | --- | --- | --- |
| Compound NOT metabolized | Compound NOT metabolized | – | Compound NOT metabolized | Compound NOT metabolized | Compound NOT metabolized | Compound NOT metabolized | Compound NOT metabolized | Compound NOT metabolized | Compound NOT metabolized | Compound NOT metabolized | Compound NOT metabolized | – | Compound NOT metabolized | Compound NOT metabolized | Compound NOT metabolized | Compound NOT metabolized | Compound NOT metabolized | CC(C)NCC(O)COc1ccc(CCOCC2CC2)cc1 (stereo not given) [BETAXOLOL] | – |
| Compound NOT metabolized | Compound NOT metabolized | – | Compound NOT metabolized | Compound NOT metabolized | Compound NOT metabolized | Compound NOT metabolized | Compound NOT metabolized | Compound NOT metabolized | Compound NOT metabolized | Compound NOT metabolized | Compound NOT metabolized | Compound NOT metabolized | Compound NOT metabolized | Compound NOT metabolized | Compound NOT metabolized | Compound NOT metabolized | Compound NOT metabolized | Br.CN(C)CCCC1(c2ccc(F)cc2)OCc2cc(C#N)ccc21 (stereo not given) [CITALOPRAM HYDROBROMIDE] | – |
| Compound NOT metabolized | Compound NOT metabolized | Compound NOT metabolized | Compound metabolized | Compound NOT metabolized | Compound NOT metabolized | Compound NOT metabolized | Compound NOT metabolized | Compound metabolized | Compound metabolized | Compound metabolized | Compound metabolized | Compound NOT metabolized | Compound metabolized | – | Compound metabolized | – | Compound metabolized | c1ccc([C@H]2CN3CCSC3=N2)cc1 [LEVAMISOLE] | – |
| Compound NOT metabolized | – | Compound metabolized | Compound NOT metabolized | – | Compound NOT metabolized | Compound NOT metabolized | Compound metabolized | Compound NOT metabolized | Compound metabolized | – | – | Compound metabolized | Compound metabolized | Compound NOT metabolized | – | Compound metabolized | Compound metabolized | CCOC(=O)[C@H](CCc1ccccc1)N[C@@H](C)C(=O)N1[C@H](C(=O)O)C[C@H]2CCCC[C@@H]21 [TRANDOLAPRIL] | – |

The next lines start with the compound.

| SMILES | Bacterial Biotransformation [1] | Bacterial Biotransformation [2] | Bacterial Biotransformation [3] | Bacterial Biotransformation [4] | Bacterial Biotransformation [5] | Bacterial Biotransformation [6] | Bacterial Biotransformation [7] | Bacterial Biotransformation [8] | Bacterial Biotransformation [9] | Bacterial Biotransformation [10] | Bacterial Biotransformation [11] | Bacterial Biotransformation [12] | Bacterial Biotransformation [13] | Bacterial Biotransformation [14] | Bacterial Biotransformation [15] | Bacterial Biotransformation [16] | Bacterial Biotransformation [18] | Bacterial Biotransformation [19] | Bacterial Biotransformation [17] |
| --- | --- | --- | --- | --- | --- | --- | --- | --- | --- | --- | --- | --- | --- | --- | --- | --- | --- | --- | --- |
| CCCC(=O)Nc1ccc(OCC(O)CNC(C)C)c(C(C)=O)c1 (stereo not given) [ACEBUTOLOL] | Compound NOT metabolized | Compound NOT metabolized | Compound NOT metabolized | Compound NOT metabolized | Compound NOT metabolized | Compound NOT metabolized | Compound NOT metabolized | Compound NOT metabolized | Compound NOT metabolized | Compound NOT metabolized | Compound NOT metabolized | Compound NOT metabolized | Compound NOT metabolized | Compound NOT metabolized | Compound NOT metabolized | – | – | – | – |
| CN(C)CCc1c[nH]c2ccc(CS(=O)(=O)N3CCCC3)cc12 [ALMOTRIPTAN] | Compound NOT metabolized | Compound NOT metabolized | – | Compound NOT metabolized | Compound NOT metabolized | Compound NOT metabolized | Compound NOT metabolized | Compound NOT metabolized | Compound NOT metabolized | Compound NOT metabolized | Compound NOT metabolized | – | Compound NOT metabolized | Compound NOT metabolized | – | Compound NOT metabolized | – | – | – |
| C=CCc1ccccc1OCC(O)CNC(C)C (stereo not given) [ALPRENOLOL] | – | Compound NOT metabolized | – | Compound NOT metabolized | – | Compound NOT metabolized | Compound NOT metabolized | Compound NOT metabolized | Compound NOT metabolized | Compound NOT metabolized | Compound NOT metabolized | Compound NOT metabolized | Compound NOT metabolized | Compound NOT metabolized | Compound NOT metabolized | Compound NOT metabolized | – | – | Compound NOT metabolized |
| CCN1CCCC1CNC(=O)c1cc(S(=O)(=O)CC)c(N)cc1OC (stereo not given) [AMISULPRIDE] | Compound NOT metabolized | Compound NOT metabolized | Compound NOT metabolized | Compound NOT metabolized | Compound NOT metabolized | Compound NOT metabolized | Compound NOT metabolized | Compound NOT metabolized | Compound NOT metabolized | Compound NOT metabolized | Compound NOT metabolized | Compound NOT metabolized | Compound NOT metabolized | Compound NOT metabolized | Compound NOT metabolized | Compound NOT metabolized | Compound NOT metabolized | – | – |
| CC(C)NCC(O)COc1ccc(CC(N)=O)cc1 (stereo not given) [ATENOLOL] | Compound NOT metabolized | Compound NOT metabolized | Compound NOT metabolized | Compound NOT metabolized | Compound NOT metabolized | Compound NOT metabolized | Compound NOT metabolized | – | Compound NOT metabolized | Compound NOT metabolized | – | – | Compound NOT metabolized | Compound NOT metabolized | Compound NOT metabolized | Compound NOT metabolized | – | – | – |
| COc1cc2c(c(OC)c1OC)-c1ccc(OC)c(=O)cc1[C@@H](NC(C)=O)CC2 [COLCHICINE] | Compound NOT metabolized | Compound NOT metabolized | – | Compound NOT metabolized | Compound NOT metabolized | Compound NOT metabolized | – | Compound NOT metabolized | Compound NOT metabolized | Compound metabolized | Compound metabolized | Compound metabolized | Compound metabolized | Compound NOT metabolized | Compound NOT metabolized | Compound metabolized | – | Compound metabolized | Compound metabolized |
